Test results as given in patent US20260325533A1, “CDK INHIBITOR COMPOUNDS” (ALEKSIA THERAPEUTICS, INC., priority 2023, published 2026).
pIC50: −log10 of the molar value. Like-named read-outs stand apart in the source and are kept apart here.

Legend:
Format in all cases: biochemical
CDK4/CCND3 = CDK4/CCND3 (Homo sapiens, UniProt P11802); experiment: CDK4 homogeneous time-resolved fluorescence (HTRF) kinase assay; conditions: CDK4/CCND
Summary of the method: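 Inhibition of CDK4/CCND3 (1.5 nM) was measured at high ATP (1 mM) using 50 nM ULight-labelled 4E-BP1 Thr37/46 peptide; detection used 2 nM europium anti-phospho antibody after EDTA quench. IC50 values came from 11-point half-log titrations typically starting at 10 μM.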

CDK2/CCNE1 = CDK2/CCNE1 (Homo sapiens, UniProt P24941); experiment: CDK2 homogeneous time-resolved fluorescence (HTRF) kinase assay; conditions: CDK2/CCNE
Summary of the method: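 3 nM CDK2/CCNE1 was preincubated with compound for 20 min at 23 °C in HEPES buffer (pH not stated), then reacted 60 min with 1 mM ATP and 50 nM ULight-4E-BP1 (Thr37/46) peptide. After EDTA stop, Eu-anti-phospho-4E-BP1 antibody (2 nM) was added for 60 min and TR-FRET read at 665 nm.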

CDK6/CCND1 = CDK6/CCND1 (Homo sapiens, UniProt Q00534); experiment: CDK6 homogeneous time-resolved fluorescence (HTRF) kinase assay; conditions: CDK6/CCND
CDK6/CCND1, sequence (Q00534 whole entry): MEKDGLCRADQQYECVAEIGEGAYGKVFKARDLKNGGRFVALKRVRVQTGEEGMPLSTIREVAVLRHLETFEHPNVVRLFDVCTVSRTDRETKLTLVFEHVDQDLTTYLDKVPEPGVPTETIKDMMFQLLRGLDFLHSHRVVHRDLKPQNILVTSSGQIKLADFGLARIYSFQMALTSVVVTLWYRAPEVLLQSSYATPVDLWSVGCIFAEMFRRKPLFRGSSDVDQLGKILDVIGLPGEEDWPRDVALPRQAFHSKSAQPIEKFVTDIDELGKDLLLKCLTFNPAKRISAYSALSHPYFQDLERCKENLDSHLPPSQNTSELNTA
CDK6/CCND1, sequence (P24385 whole entry partner): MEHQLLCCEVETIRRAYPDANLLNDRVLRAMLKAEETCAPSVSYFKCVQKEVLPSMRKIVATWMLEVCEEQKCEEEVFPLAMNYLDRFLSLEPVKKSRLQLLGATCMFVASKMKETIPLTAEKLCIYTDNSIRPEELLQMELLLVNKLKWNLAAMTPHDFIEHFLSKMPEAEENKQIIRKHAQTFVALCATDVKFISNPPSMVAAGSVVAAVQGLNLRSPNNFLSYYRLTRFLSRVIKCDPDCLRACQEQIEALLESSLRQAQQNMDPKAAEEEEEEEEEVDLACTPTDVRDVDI
Summary of the method: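 1 nM enzyme, 1 mM ATP, 50 nM ULight-4E-BP1 (Thr37/46) peptide, 1% DMSO; 20 min compound preincubation, 60 min reaction, 23 °C. EDTA stop, 2 nM Eu-anti-phospho-4E-BP1 antibody 60 min. TR-FRET 665 nm (or 665/615 ratio); IC50 from 11-point half-log titration, top 10 μM.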

CDK1/CCNB1 = CDK1/CCNB1 (Homo sapiens, UniProt P06493); experiment: CDK1 homogeneous time-resolved fluorescence (HTRF) kinase assay; conditions: CDK1/CCNB
CDK1/CCNB1, sequence (P06493 whole entry): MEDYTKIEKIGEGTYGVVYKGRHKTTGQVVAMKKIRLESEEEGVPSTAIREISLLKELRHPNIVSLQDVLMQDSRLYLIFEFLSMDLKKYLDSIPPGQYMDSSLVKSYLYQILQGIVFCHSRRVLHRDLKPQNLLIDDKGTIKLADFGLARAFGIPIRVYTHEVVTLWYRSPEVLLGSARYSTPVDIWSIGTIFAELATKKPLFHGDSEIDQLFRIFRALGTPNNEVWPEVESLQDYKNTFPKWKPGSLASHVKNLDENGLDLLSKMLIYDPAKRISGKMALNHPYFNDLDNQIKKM
CDK1/CCNB1, sequence (P14635 whole entry partner): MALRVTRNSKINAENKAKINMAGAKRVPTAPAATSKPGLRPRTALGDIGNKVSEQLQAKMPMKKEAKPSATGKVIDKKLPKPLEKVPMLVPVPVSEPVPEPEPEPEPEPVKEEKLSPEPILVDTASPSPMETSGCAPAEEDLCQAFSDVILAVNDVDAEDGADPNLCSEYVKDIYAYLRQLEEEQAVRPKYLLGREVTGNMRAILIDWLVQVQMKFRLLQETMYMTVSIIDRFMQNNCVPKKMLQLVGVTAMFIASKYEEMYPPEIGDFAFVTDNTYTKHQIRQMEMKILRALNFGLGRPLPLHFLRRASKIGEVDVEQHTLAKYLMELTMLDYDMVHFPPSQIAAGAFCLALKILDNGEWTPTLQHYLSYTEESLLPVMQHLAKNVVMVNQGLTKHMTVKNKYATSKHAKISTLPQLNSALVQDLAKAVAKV
Summary of the method: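 Kinase activity is measured as Lance signal (665 nm, or 665/615 nm ratio) from europium-labelled anti-phospho-Thr37/46 antibody binding ULight-4E-BP1 peptide. Reactions contain 0.5 nM enzyme, 1 mM ATP, 1% DMSO and run 60 min at 23 °C before EDTA quench.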

[1] = >250 nM, read-out: CDK4/CCND IC50, >250 nM
[2] = >250 nM, 1 mM ATP, read-out: CDK6/CCND IC50, >250 nM
[3] = >250 nM, read-out: CDK1/CCNB IC50 >250 nM
[4] = 25-250 nM, read-out: CDK2/CCNE IC50, 25-250 nM
[5] = <25 nM, read-out: CDK2/CCNE IC50, <25 nM
[6] = 25-250 nM marked x, read-out: CDK4/CCND IC50 25-250 nM
[7] = 25-250 nM marked x, read-out: CDK2/CCNE IC50 25-250 nM
[8] = 25-250 nM marked x, read-out: CDK6/CCND IC50 25-250 nM
[9] = >250 nM marked x, read-out: CDK1/CCNB IC50 >250 nM
[10] = <25 nM, read-out: CDK6/CCND IC50 <25 nM
[11] = <25 nM, read-out: CDK2/CCNE IC50 <25 nM
[12] = 25-250 nM marked x, read-out: CDK1/CCNB IC50 25-250 nM
[13] = <25 nM, read-out: CDK4/CCND IC50 <25 nM
[14] = >250 nM marked x, read-out: CDK4/CCND IC50 >250 nM
[15] = >250 nM marked x, read-out: CDK6/CCND IC50 >250 nM

CDK4/CCND3, sequence (P11802 whole entry): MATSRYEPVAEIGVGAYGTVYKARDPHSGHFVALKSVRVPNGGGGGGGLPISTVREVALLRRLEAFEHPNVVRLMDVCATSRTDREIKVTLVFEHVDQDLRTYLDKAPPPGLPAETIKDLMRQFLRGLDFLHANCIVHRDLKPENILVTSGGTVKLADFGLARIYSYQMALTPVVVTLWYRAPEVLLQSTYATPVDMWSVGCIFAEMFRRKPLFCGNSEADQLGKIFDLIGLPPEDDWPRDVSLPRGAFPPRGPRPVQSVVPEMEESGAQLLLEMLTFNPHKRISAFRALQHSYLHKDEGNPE
CDK4/CCND3, sequence (P30281 whole entry partner): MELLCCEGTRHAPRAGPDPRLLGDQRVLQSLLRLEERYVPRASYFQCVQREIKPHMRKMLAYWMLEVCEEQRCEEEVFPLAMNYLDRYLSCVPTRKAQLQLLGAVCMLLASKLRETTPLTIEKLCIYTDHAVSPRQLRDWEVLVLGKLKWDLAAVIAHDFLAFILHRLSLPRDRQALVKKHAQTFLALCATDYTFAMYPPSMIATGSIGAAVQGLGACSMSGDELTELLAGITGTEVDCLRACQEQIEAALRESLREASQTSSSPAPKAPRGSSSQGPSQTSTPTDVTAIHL

Row | SMILES | pIC50 (CDK4/CCND3; [1]) | pIC50 (CDK6/CCND1; [2]) | pIC50 (CDK1/CCNB1; [3]) | pIC50 (CDK2/CCNE1; [4]) | pIC50 (CDK2/CCNE1; [11]) | other results
1 | Cc1c(-c2nccc3cnc(Nc4ccc(C(=O)Nc5ccccc5)cc4)cc23)ccc2c1cnn2CC(C)(C)O [Ex 937, 4-((5-(1-(2-hydroxy-2-methylpropyl)-4-methyl-1H-indazol-5-yl)-2,6-naphthyridin-3-yl)amino)-N-phenylbenzamide] | < 6.60 | < 6.60 | < 6.60 | – | – | pIC50 (CDK2/CCNE1; [5]): > 7.60
2 | Cc1c(-c2nccc3cnc(Nc4ccc(NS(C)(=O)=O)cc4)cc23)ccc2c1cnn2CC(C)(C)O [Ex 938, N-(4-((5-(1-(2-hydroxy-2-methylpropyl)-4-methyl-1H-indazol-5-yl)-2,6-naphthyridin-3-yl)amino)phenyl)methanesulfonamide] | – | – | – | – | – | pIC50 (CDK4/CCND3; 25-250 nM, read-out: CDK4/CCND IC50, 25-250 nM): 6.60 to 7.60; pIC50 (CDK2/CCNE1; [5]): > 7.60; pIC50 (CDK6/CCND1; 25-250 nM, 1 mM ATP, read-out: CDK6/CCND IC50, 25-250 nM): 6.60 to 7.60; pIC50 (CDK1/CCNB1; 25-250 nM, read-out: CDK1/CCNB IC50, 25-250 nM): 6.60 to 7.60
3 | Cc1c(-c2nccc3cnc(Nc4ccnc(OCc5ccccc5)c4)cc23)ccc2c1cnn2CC(C)(C)O [Ex 939, 1-(5-(7-((2-(benzyloxy)pyridin-4-yl)amino)-2,6-naphthyridin-1-yl)-4-methyl-1H-indazol-1-yl)-2-methylpropan-2-ol] | < 6.60 | < 6.60 | < 6.60 | 6.60 to 7.60 | – | –
4 | CS(=O)(=O)N1CCC(Nc2cc3c(N4CCC(O)CC4)nccc3cn2)CC1 [Example 1, 1-(7-((1-(methylsulfonyl)piperidin-4-yl)amino)-2,6-naphthyridin-1-yl)piperidin-4-ol] | – | – | – | – | – | pIC50 (CDK4/CCND3; [6]): 6.60 to 7.60; pIC50 (CDK2/CCNE1; [7]): 6.60 to 7.60; pIC50 (CDK6/CCND1; [8]): 6.60 to 7.60; pIC50 (CDK1/CCNB1; [9]): < 6.60
5 | CS(=O)(=O)N1CCC(Nc2cc3c(N4CCCC4)nccc3cn2)CC1 [Example 2, N-(1-(methylsulfonyl)piperidin-4-yl)-5-(pyrrolidin-1-yl)-2,6-naphthyridin-3-amine] | – | – | – | – | – | pIC50 (CDK4/CCND3; [6]): 6.60 to 7.60; pIC50 (CDK2/CCNE1; [7]): 6.60 to 7.60; pIC50 (CDK6/CCND1; [10]): > 7.60; pIC50 (CDK1/CCNB1; [9]): < 6.60
6 | C=CS(=O)(=O)N1CCC(Nc2cc3c(N4CCCCC4)nccc3cn2)CC1 [Example 3, 5-(piperidin-1-yl)-N-(1-(vinylsulfonyl)piperidin-4-yl)-2,6-naphthyridin-3-amine] | – | – | – | – | > 7.60 | pIC50 (CDK4/CCND3; [6]): 6.60 to 7.60; pIC50 (CDK6/CCND1; [8]): 6.60 to 7.60; pIC50 (CDK1/CCNB1; [12]): 6.60 to 7.60
7 | CC(C)c1nccc2cnc(NC3CCN(S(C)(=O)=O)CC3)cc12 [Example 6, 5-isopropyl-N-(1-(methylsulfonyl)piperidin-4-yl)-2,6-naphthyridin-3-amine] | – | – | – | – | > 7.60 | pIC50 (CDK4/CCND3; [13]): > 7.60; pIC50 (CDK6/CCND1; [8]): 6.60 to 7.60; pIC50 (CDK1/CCNB1; [12]): 6.60 to 7.60
8 | CS(=O)(=O)N1CCC(Nc2cc3c(OCc4ccccc4)nccc3cn2)CC1 [Example 11, 5-(benzyloxy)-N-(1-(methylsulfonyl)piperidin-4-yl)-2,6-naphthyridin-3-amine] | – | – | – | – | – | pIC50 (CDK4/CCND3; [13]): > 7.60; pIC50 (CDK2/CCNE1; [7]): 6.60 to 7.60; pIC50 (CDK6/CCND1; [10]): > 7.60; pIC50 (CDK1/CCNB1; [12]): 6.60 to 7.60
9 | C=CS(=O)(=O)c1ccc(Nc2cc3c(N4CCC(C#N)CC4)nccc3cn2)cc1 [Example 15, 1-(7-((4-(vinylsulfonyl)phenyl)amino)-2,6-naphthyridin-1-yl)piperidine-4-carbonitrile] | – | – | – | – | – | pIC50 (CDK4/CCND3; [14]): < 6.60; pIC50 (CDK2/CCNE1; [7]): 6.60 to 7.60; pIC50 (CDK6/CCND1; [15]): < 6.60; pIC50 (CDK1/CCNB1; [9]): < 6.60
10 | CS(=O)(=O)N1CCC(Nc2cc3c(N4CCCCC4)nc(C=O)cc3cn2)CC1 [Example 18, 7-((1-(methylsulfonyl)piperidin-4-yl)amino)-1-(piperidin-1-yl)-2,6-naphthyridine-3-carbaldehyde] | – | – | – | – | > 7.60 | pIC50 (CDK4/CCND3; [13]): > 7.60; pIC50 (CDK6/CCND1; [10]): > 7.60; pIC50 (CDK1/CCNB1; [12]): 6.60 to 7.60
11 | C=CS(=O)(=O)N1CCC(Nc2cc3c(C4=CCCCC4)nccc3cn2)CC1 [Example 20, 5-(cyclohex-1-en-1-yl)-N-(1-(vinylsulfonyl)piperidin-4-yl)-2,6-naphthyridin-3-amine] | – | – | – | – | > 7.60 | pIC50 (CDK4/CCND3; [13]): > 7.60; pIC50 (CDK6/CCND1; [10]): > 7.60; pIC50 (CDK1/CCNB1; [12]): 6.60 to 7.60
12 | CS(=O)(=O)N1CCC(Nc2cc3c(C4CCCCC4)nccc3cn2)CC1 [Example 21, 5-cyclohexyl-N-(1-(methylsulfonyl)piperidin-4-yl)-2,6-naphthyridin-3-amine] | – | – | – | – | > 7.60 | pIC50 (CDK4/CCND3; [13]): > 7.60; pIC50 (CDK6/CCND1; [10]): > 7.60; pIC50 (CDK1/CCNB1; [12]): 6.60 to 7.60
13 | CS(=O)(=O)N1CCC(Nc2cc3c(C4CCCC4)nccc3cn2)CC1 [Example 22, 5-cyclopentyl-N-(1-(methylsulfonyl)piperidin-4-yl)-2,6-naphthyridin-3-amine] | – | – | – | – | > 7.60 | pIC50 (CDK4/CCND3; [13]): > 7.60; pIC50 (CDK6/CCND1; [10]): > 7.60; pIC50 (CDK1/CCNB1; <25 nM, read-out: CDK1/CCNB IC50 <25 nM): > 7.60

More lines, main results first:

Row | pIC50 (CDK4/CCND3; [1]) | pIC50 (CDK6/CCND1; [2]) | pIC50 (CDK1/CCNB1; [3]) | pIC50 (CDK2/CCNE1; [4]) | pIC50 (CDK2/CCNE1; [11]) | SMILES | other results
14 | < 6.60 | < 6.60 | < 6.60 | – | – | CN1CCN(S(=O)(=O)c2ccc(Nc3cc4c(C#Cc5ccc(C#N)cc5)nccc4cn3)cc2)CC1 [Ex 933, 4-((7-((4-((4-methylpiperazin-1-yl)sulfonyl)phenyl)amino)-2,6-naphthyridin-1-yl)ethynyl)benzonitrile] | pIC50 (CDK2/CCNE1; >250 nM, read-out: CDK2/CCNE IC50, >250 nM): < 6.60
15 | < 6.60 | < 6.60 | < 6.60 | 6.60 to 7.60 | – | N#Cc1ccc(C#Cc2nccc3cnc(Nc4ccc(S(=O)(=O)N5CCOCC5)cc4)cc23)cc1 [Ex 934, 4-((7-((4-(morpholinosulfonyl)phenyl)amino)-2,6-naphthyridin-1-yl)ethynyl)benzonitrile] | –
16 | < 6.60 | < 6.60 | < 6.60 | 6.60 to 7.60 | – | N#Cc1ccc(C#Cc2nccc3cnc(Nc4ccc(S(=O)(=O)Nc5ccccn5)cc4)cc23)cc1 [Ex 935, 4-((5-((4-cyanophenyl)ethynyl)-2,6-naphthyridin-3-yl)amino)-N-(pyridin-2-yl)benzenesulfonamide] | –
17 | < 6.60 | < 6.60 | < 6.60 | – | – | Cc1cc(C)nc(NS(=O)(=O)c2ccc(Nc3cc4c(C#Cc5ccc(C#N)cc5)nccc4cn3)cc2)n1 [Ex 936, 4-((5-((4-cyanophenyl)ethynyl)-2,6-naphthyridin-3-yl)amino)-N-(4,6-dimethylpyrimidin-2-yl)benzenesulfonamide] | pIC50 (CDK2/CCNE1; [5]): > 7.60
18 | < 6.60 | < 6.60 | < 6.60 | 6.60 to 7.60 | – | CS(=O)(=O)Nc1ccc(Nc2cc3c(C#Cc4ccc(C#N)cc4)nccc3cn2)cc1 [Ex 940, N-(4-((5-((4-cyanophenyl)ethynyl)-2,6-naphthyridin-3-yl)amino)phenyl)methanesulfonamide] | –
19 | < 6.60 | < 6.60 | < 6.60 | 6.60 to 7.60 | – | COc1ccc(C#Cc2nccc3cnc(Nc4ccc(S(C)(=O)=O)cc4)cc23)cc1 [Ex 941, 5-((4-methoxyphenyl)ethynyl)-N-(4-(methylsulfonyl)phenyl)-2,6-naphthyridin-3-amine] | –
20 | < 6.60 | < 6.60 | < 6.60 | 6.60 to 7.60 | – | CS(=O)(=O)c1cccc(Nc2cc3c(C#Cc4ccc(C#N)cc4)nccc3cn2)c1 [Ex 942, 4-((7-((3-(methylsulfonyl)phenyl)amino)-2,6-naphthyridin-1-yl)ethynyl)benzonitrile] | –
21 | < 6.60 | < 6.60 | < 6.60 | 6.60 to 7.60 | – | Cn1cc(Nc2cc3c(C#Cc4ccc(C#N)cc4)nccc3cn2)cn1 [Ex 943, 4-((7-((1-methyl-1H-pyrazol-4-yl)amino)-2,6-naphthyridin-1-yl)ethynyl)benzonitrile] | –
22 | – | – | – | – | > 7.60 | CC#Cc1nccc2cnc(Nc3ccc(S(C)(=O)=O)cc3)cc12 [Example 7, N-(4-(methylsulfonyl)phenyl)-5-(prop-1-yn-1-yl)-2,6-naphthyridin-3-amine] | pIC50 (CDK4/CCND3; [14]): < 6.60; pIC50 (CDK6/CCND1; [15]): < 6.60; pIC50 (CDK1/CCNB1; [9]): < 6.60
